Assay [1] addresses T1, 5-HT4 receptor (Rattus norvegicus, UniProt Q62758).
T1 construct: esophagus smooth muscle, freshly removed from male Wistar rats; from tissue; host or cells: esophagus smooth muscle of male Wistar rats
In words: 5-HT4 receptor antagonism in carbamylcholine-contracted isolated esophagus smooth muscle (antagonism of serotonin-induced relaxation). Also on record: species or system male Wistar rats. Here is the method: The test was carried out in esophagus smooth muscle, freshly removed from male Wistar rats weighing 250-300 g each. The rats were killed by cervical dislocation, and the esophagus was removed and dissected free of connective tissue. The esophagi were used as longitudinal preparations--obtaining two preparations from each animal. The tissues were tied with thread at each end with the lower end being tied to a stationary glass rod and the upper end to a force transducer.
Tissues were mounted in organ baths containing 10 mL of modified Krebs' solution of the following composition (millimolar) NaCl 118.2; KCl 4.6; CaCl2.2H2 O 1.6; KH2 PO4 1.2; MgSO4 1.2; dextrose 10.0; and NaHCO3 24.8. Tissue bath solutions were maintained at 37° C. and aerated with 95% O2 -5% CO2. Tissues were placed under optimum resting force, 1 g, and were allowed to equilibrate for 1 hr before exposure to drugs. Isometric contractions were recorded as changes in grams of force on the Modular Instruments Inc. (Malvern, Pa.) model M4000 data acquisition system with Sensotec (Columbus, Ohio) model MBL 5514-02 transducers.
For studies with partial agonists or antagonists, tissues were preincubated with vehicle or antagonist for 45 min. All drugs were prepared daily in deionized water and kept on ice during the course of the experiment. The tissues were contracted by incubation with 10^-7 -10^-5 M carbamylcholine, and were relaxed by the addition of serotonin at 10^-8 -10^-10 M, which treatment relaxed the tissue and reduced the contraction caused by carbamylcholine. Addition of a compound of the present invention antagonized the serotonin response and reduced the observed relaxations of the tissue. Repeated tests of each compound at various concentrations were carried out, and the concentration that caused a two-fold shift of the relaxation curve was calculated. That concentration is reported here as the negative logarithm. In each case, the SEM of the data has been calculated and is shown below, as is the number of experiments carried out with each compound.

For assay [2], the system named is 5-HT4 receptor. Particulars: presently known compound; cited from earlier work.

Each structure is given as a SMILES string. Where a name gives a salt, the structure may show the parent alone. Read-outs that look alike come from different tables or passages of the source.

T1 sequence (Q62758 whole entry): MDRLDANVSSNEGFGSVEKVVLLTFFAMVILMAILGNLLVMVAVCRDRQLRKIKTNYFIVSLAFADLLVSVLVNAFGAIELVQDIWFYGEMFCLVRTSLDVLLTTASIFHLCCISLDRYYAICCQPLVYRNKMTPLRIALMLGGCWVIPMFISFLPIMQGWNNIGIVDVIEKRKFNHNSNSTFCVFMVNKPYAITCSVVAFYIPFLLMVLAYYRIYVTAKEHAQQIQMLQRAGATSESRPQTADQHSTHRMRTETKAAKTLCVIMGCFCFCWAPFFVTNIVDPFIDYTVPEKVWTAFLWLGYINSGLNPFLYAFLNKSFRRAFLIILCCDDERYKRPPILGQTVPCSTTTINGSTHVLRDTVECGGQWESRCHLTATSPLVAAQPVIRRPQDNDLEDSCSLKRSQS

A word on the Kb: it is the equilibrium dissociation constant of an antagonist, usually derived from a functional assay. In turn, `CC(C)n1nc(C(=O)NCCN2CCN(C(=O)c3ccccc3)CC2)c2ccccc21` [Example 18, N-[2-(4-benzoyl-1-piperazinyl)ethyl]-1-(2-propyl)-1H-indazole-3-carboxamide oxalate] gave an antagonist equilibrium constant (Kb) at 5-HT4 receptor [1] of 31.6 nM.
Take `CC(=O)NC1CCN(CCNC(=O)c2nn(C(C)C)c3ccccc23)CC1` [Example 28, N-[2-(4-acetylamino-1-piperidinyl)ethyl]-1-(2-propyl)-1H-indazole-3-carboxamide oxalate]: on 5-HT4 receptor [1], the Kb is 5.01 nM.
Still for that read-out and setting: the figure for `CCCCC(=O)NC1CCN(CCNC(=O)c2nn(C(C)C)c3ccccc23)CC1` [Example 31, N-[2-(4-valerylamino-1-piperidinyl)ethyl]-1-(2-propyl)-1H-indazole-3-carboxamide] is 20 nM; for `CC(C)n1nc(C(=O)NCCCCN2CCCCC2)c2ccccc21` [Example 6, N-[4-(1-piperidinyl)butyl]-1-(2-propyl)-1H-indazole-3-carboxamide oxalate] it is 6.31 nM; for `CC(C)n1nc(C(=O)NCCN2CCC(NC(=O)c3ccccc3)CC2)c2ccccc21` [Example 25, N-[2-(4-benzoylamino-1-piperidinyl)ethyl]-1-(2-propyl)-1H-indazole-3-carboxamide oxalate] it is 2.51 nM.
On 5-HT4 receptor [1], `CC(C)n1nc(C(=O)NCCN2CCN(Cc3ccccc3)CC2)c2ccccc21` [Example 16, N-[2-(4-benzyl-1-piperazinyl)ethyl]-1-(2-propyl)-1H-indazole-3-carboxamidedihydrochloride] showed a Kb of 10 nM.
The same measure, in the same setting: then `CC(C)n1nc(C(=O)NCCN2CCC(NC(=O)C(C)(C)C)CC2)c2ccccc21` [Example 33, N-[2-(4-trimethylacetylamino-1-piperidinyl)ethyl]-1-(2-propyl)-1H-indazole-3-carboxamide oxalate], with 3.16 nM; and `CC(C)n1nc(C(=O)NCCN2CCC(NC(=O)OCc3ccccc3)CC2)c2ccccc21` [Example 8, N-[2-(4-benzyloxycarbonylamino-1-piperidinyl)ethyl]-1-(2-propyl)-1H-indazole-3-carboxamide oxalate], with 1.58 nM.
`CC(C)n1nc(C(=O)NCCN2CCC(NC(=O)Cc3ccccc3)CC2)c2ccccc21` [Example 26, N-[2-(4-benzylcarbonylamino-1-piperidinyl)ethyl]-1-(2-propyl)-1H-indazole-3-carboxamide oxalate]: the Kb at 5-HT4 receptor [1] is 3.98 nM.
`CC(C)n1nc(C(=O)NCCN2CCC(N)CC2)c2ccccc21` [Example 23, N-[2-(4-amino-1-piperidinyl)ethyl]-1-(2-propyl)-1H-indazole-3-carboxamide dioxalate] had a Kb at 5-HT4 receptor [1] of 158 nM.
Compound `CC(C)n1nc(C(=O)NCCN2CCC(Cc3ccccc3)CC2)c2ccccc21` [Example 20, N-[2-(4-benzyl-1-piperidinyl)ethyl]-1-(2-propyl)-1H-indazole-3-carboxamideoxalate] gave a Kb at 5-HT4 receptor [1] of 50.1 nM.
Compound `CC(C)n1nc(C(=O)NCCN2CCC(NC(=O)C34CC5CC(CC(C5)C3)C4)CC2)c2ccccc21` [Example 27, N-[2-(4-(1-adamantylcarbonylamino)-1-piperidinyl)ethyl]-1-(2-propyl)-1H-indazole-3-carboxamide oxalate] showed a Kb on 5-HT4 receptor [1] of 0.126 nM.
`CC(C)n1nc(C(=O)NCCN2CCC(NC(=O)NCc3ccccc3)CC2)c2ccccc21` [Example 34, N-[2-(4-benzylaminocarbonylamino)-1-piperidinyl)ethyl]-1-(2-propyl)-1H-indazole-3-carboxamide oxalate] had a Kb on 5-HT4 receptor [1] of 5.01 nM.
The compound `CC(C)n1nc(C(=O)NCCN2CCC(NC(=O)Nc3ccc(F)cc3)CC2)c2ccccc21` [Example 36, N-[2-(4-(4-fluorophenylaminocarbonylamino)-1-piperidinyl)ethyl]-1-(2-propyl)-1H-indazole-3-carboxamide oxalate] showed a Kb at 5-HT4 receptor [1] of 25.1 nM.
On the same count and under the same terms, then `CC(C)n1nc(C(=O)NCCN2CCCCC2)c2ccccc21` [Example 2, N-[2-(1-piperidinyl)ethyl]-1-(2-propyl)-1H-indazole-3-carboxamide hydrochloride], with 10 nM.
The compound `CCCC(=O)NC1CCN(CCNC(=O)c2nn(C(C)C)c3ccccc23)CC1` [Example 30, N-[2-(4-butyrylamino-1-piperidinyl)ethyl]-1-(2-propyl)-1H-indazole-3-carboxamide oxalate] had a Kb on 5-HT4 receptor [1] of 15.8 nM.
In turn, `CC(C)n1nc(C(=O)NCCN2CCc3ccccc3C2)c2ccccc21` [Example 22, N-[2-(1,2,3,4-tetrahydro-2-isoquinolinyl)ethyl]-1-(2-propyl)-1H-indazole-3-carboxamide oxalate] had a Kb at 5-HT4 receptor [1] of 10 nM.
With `CC(C)C(=O)NC1CCN(CCNC(=O)c2nn(C(C)C)c3ccccc23)CC1` [Example 32, N-[2-(4-isobutyrylamino-1-piperidinyl)ethyl]-1-(2-propyl)-1H-indazole-3-carboxamide oxalate], the antagonist dissociation constant (Kb) at 5-HT4 receptor [1] was 2.51 nM.
Consider `O=C(NCCN1CCCCC1)c1n[nH]c2ccccc12` [Example 1, N-[2-(1-piperidinyl)ethyl]-1H-indazole-3-carboxamide hydrochloride], for which, on 5-HT4 receptor [1] (negative logarithm of concentration that caused a two-fold shift of the serotonin relaxation curve, rat esophagus, 45 min preincubation, ± SEM (number of experiments), read-out: -Log KB (converted)), the Kb is 31.6 nM.
As to `CC(C)n1nc(C(=O)NCCN2CCC(NC(=O)C34CC5CC(CC(O)(C5)C3)C4)CC2)c2ccccc21` [Example 37, N-[2-(4-(3-hydroxy-1-adamantylcarbonylamino)-1-piperidinyl)ethyl]-1-(2-propyl)-1H-indazole-3-carboxamide oxalate], at 5-HT4 receptor [1], the antagonist equilibrium constant (Kb) is 1.26 nM.
On the same count and under the same terms, then `CC(C)n1nc(C(=O)NCCN2CCC(NC(=O)C34CC5CC(C3)C(O)C(C5)C4)CC2)c2ccccc21` (centres unmarked) [Example 38, N-[2-(4-(4-hydroxy-1-adamantylcarbonylamino)-1-piperidinyl)ethyl]-1-(2-propyl)-1H-indazole-3-carboxamide oxalate], with 2 nM; and `CC(C)n1nc(C(=O)NCCN2CCCC2)c2ccccc21` [Example 10, N-[2-(1-pyrrolidinyl)ethyl]-1-(2-propyl)-1H-indazole-3-carboxamide hydrochloride], with 20 nM; and `CCC(=O)NC1CCN(CCNC(=O)c2nn(C(C)C)c3ccccc23)CC1` [Example 29, N-[2-(4-propionylamino-1-piperidinyl)ethyl]-1-(2-propyl)-1H-indazole-3-carboxamide oxalate], with 3.16 nM.
Turning to `CC(C)n1nc(C(=O)NCCCN2CCCCC2)c2ccccc21` [Example 4, N-[3-(1-piperidinyl)propyl]-1-(2-propyl)-1H-indazole-3-carboxamide hydrochloride], the Kb at 5-HT4 receptor [1] was 7.94 nM.
In turn, `CC(C)n1nc(C(=O)NCCN2CCC(NS(C)(=O)=O)CC2)c2ccccc21` [Example 24, N-[2-(4-methylsulfonylamino-1-piperidinyl)ethyl]-1-(2-propyl)-1H-indazole-3-carboxamide oxalate] had a Kb on 5-HT4 receptor [1] of 12.6 nM.
`COc1cc(N)c(Cl)cc1C(=O)NC1CCN(CCCOc2ccc(F)cc2)CC1OC` (centres unmarked) [cisapride]: in the assay with 5-HT4 receptor [2], the “affinity at the 5-HT4 receptor” value is listed as “high affinity”.
As for `CC(C)n1nc(C(=O)NCCN2CCCCCC2)c2ccccc21` [Example 12, N-[2-(1-hexamethyleneiminyl)ethyl]-1-(2-propyl)-1H-indazole-3-carboxamide hydrochloride], on 5-HT4 receptor [1], the antagonist equilibrium constant (Kb) was 10 nM.
Turning to `CC(C)n1nc(C(=O)NCCN2CCC(NC(=O)Nc3ccccc3)CC2)c2ccccc21` [Example 35, N-[2-(4-phenylaminocarbonylamino)-1-piperidinyl)ethyl]-1-(2-propyl)-1H-indazole-3-carboxamide oxalate], the Kb on 5-HT4 receptor [1] was 10 nM.
At 5-HT4 receptor [1], `CC(C)n1nc(C(=O)NCCN2CCOCC2)c2ccccc21` [Example 14, N-[2-(4-morpholinyl)ethyl]-1-(2-propyl)-1H-indazole-3-carboxamide hydrochloride] gave a Kb of 25.1 nM.
